Results as given in patent US11566007B2, “Ras inhibitors” (Revolution Medicines, Inc., priority 2019, dated 2023).
Several values for one entry are separate records, joined by “and”; a condition that tells them apart may be missing. Identical values can stand only once. Like-named read-outs stand apart in the source and are kept apart here.

Assays:
[1] = target: NRAS WT (Homo sapiens (Human), UniProt P01111+P62937); test: Ras-Raf (BRAF RBD) disruption / FRET / MOA assay, NRAS WT; type: biochemical; details: read-out: IC50* NRAS WT FRET data
Sequence of NRAS WT (P01111 whole entry): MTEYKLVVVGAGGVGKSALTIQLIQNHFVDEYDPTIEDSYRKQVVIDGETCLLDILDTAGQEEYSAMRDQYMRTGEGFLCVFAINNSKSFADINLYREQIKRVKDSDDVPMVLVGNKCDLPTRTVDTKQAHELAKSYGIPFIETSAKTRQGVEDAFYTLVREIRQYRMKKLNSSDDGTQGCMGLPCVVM
Sequence of NRAS WT (P62937 whole entry): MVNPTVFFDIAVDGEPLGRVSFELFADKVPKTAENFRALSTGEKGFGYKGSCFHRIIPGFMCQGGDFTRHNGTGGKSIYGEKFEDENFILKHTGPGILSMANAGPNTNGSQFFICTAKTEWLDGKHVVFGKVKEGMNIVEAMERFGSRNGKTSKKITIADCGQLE
Outline: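 Compounds were tested as a 10-point 3-fold dilution series from 30 μM final for their ability to drive ternary complex formation between nucleotide-loaded Ras and cyclophilin A, displacing the BRAF RBD. After 3 h at 25° C., anti-His Eu-W1024 (10 nM) and anti-GST allophycocyanin (50 nM) were added for 1.5 h. A TR-FRET ratio decrease versus DMSO gave IC50.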

[2] = target: KRAS G13D (Homo sapiens (Human), UniProt P01116+P62937, G13D); test: Ras-Raf (BRAF RBD) disruption / FRET / MOA assay, KRAS G13D; type: biochemical
Sequence of KRAS G13D (P01116-2 other isoform, or with tags, fused parts or gaps G13D): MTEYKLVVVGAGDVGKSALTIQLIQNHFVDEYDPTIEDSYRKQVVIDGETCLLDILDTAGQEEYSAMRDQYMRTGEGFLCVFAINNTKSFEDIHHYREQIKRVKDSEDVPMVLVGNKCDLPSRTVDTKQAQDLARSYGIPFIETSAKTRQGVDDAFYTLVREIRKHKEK
Sequence of KRAS G13D (P62937 whole entry): as the sequence (P62937 whole entry) above
Outline: (§1)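 Ternary complex formation (Ras–compound–cyclophilin A) displacing BRAF RBD, monitored by TR-FRET. Three hours at 25° C with compound (top 30 μM final), then 1.5 h with the labelled antibodies. Lower ratio than DMSO indicates disruption; IC50 reported.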

[3] = system: NCI-H358 cells (K-Ras G12C); test: Potency assay: pERK in NCI-H358 cells; type: cell-based, human; details: H358 KRAS G12C, read-out: pERK EC50
Outline: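 4 h cpd, 37 °C; 10-pt 3-fold series, 10 mM DMSO top stock, duplicates. Readout pERK: AlphaLISA SureFire Ultra or In-Cell Western (IR-800CW secondary, DRAQ5 DNA stain). IC50, 4-PL fit vs log conc.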

[4] = target: KRAS G12V (Homo sapiens (Human), UniProt P01116+P62937, G12V); test: Ras-Raf (BRAF RBD) disruption / FRET / MOA assay, KRAS G12V; type: biochemical; details: read-out: IC50* KRAS G12V FRET data
Sequence of KRAS G12V (P01116-2 other isoform, or with tags, fused parts or gaps G12V): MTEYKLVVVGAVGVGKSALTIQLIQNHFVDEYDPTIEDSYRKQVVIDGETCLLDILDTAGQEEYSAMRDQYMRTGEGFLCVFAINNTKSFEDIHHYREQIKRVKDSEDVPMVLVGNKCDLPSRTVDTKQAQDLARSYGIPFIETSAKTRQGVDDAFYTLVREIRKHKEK
Sequence of KRAS G12V (P62937 whole entry): as the sequence (P62937 whole entry) above
Outline: as §1

[5] = target: NRAS G12C (Homo sapiens (Human), UniProt P01111+P62937, G12C); test: Ras-Raf (BRAF RBD) disruption / FRET / MOA assay, NRAS G12C; type: biochemical
Sequence of NRAS G12C (P01111 whole entry G12C): as the sequence (P01111 whole entry) above, with G12C counted along it
Sequence of NRAS G12C (P62937 whole entry): as the sequence (P62937 whole entry) above
Outline: as §1

[6] = target: K-Ras G12C (Homo sapiens (Human), UniProt P01116+P62937, G12C); test: Ras-Raf (BRAF RBD) disruption / FRET / MOA assay, KRAS G12C; type: biochemical; details: KRAS G12C, Ras-Raf disruption/FRET/MOA assay
Sequence of K-Ras G12C (P01116-2 other isoform, or with tags, fused parts or gaps G12C): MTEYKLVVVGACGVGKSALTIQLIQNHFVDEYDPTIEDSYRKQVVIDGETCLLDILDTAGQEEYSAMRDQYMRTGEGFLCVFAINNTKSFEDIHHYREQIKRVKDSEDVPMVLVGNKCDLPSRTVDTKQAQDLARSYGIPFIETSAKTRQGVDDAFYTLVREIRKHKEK
Sequence of K-Ras G12C (P62937 whole entry): as the sequence (P62937 whole entry) above
Outline: as §1

[7] = target: KRAS G12S (Homo sapiens (Human), UniProt P01116+P62937, G12S); test: Ras-Raf (BRAF RBD) disruption / FRET / MOA assay, KRAS G12S; type: biochemical; details: Ras-Raf disruption/FRET/MOA assay; class symbols; read-out: KRAS G12S FRET data IC50
Sequence of KRAS G12S (P01116-2 other isoform, or with tags, fused parts or gaps G12S): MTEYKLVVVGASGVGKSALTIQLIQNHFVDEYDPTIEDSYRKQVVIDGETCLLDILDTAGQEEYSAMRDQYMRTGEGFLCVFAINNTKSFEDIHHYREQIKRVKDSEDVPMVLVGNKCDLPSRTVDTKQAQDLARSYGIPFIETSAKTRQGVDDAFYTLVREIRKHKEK
Sequence of KRAS G12S (P62937 whole entry): as the sequence (P62937 whole entry) above
Outline: as §1

[8] = read-out: IC50* KRAS G13D FRET data
[9] = read-out: IC50* NRAS G12C FRET data
[10] = read-out: IC50* KRAS G12C FRET data

EC50 [3]	Compound	IC50 [1]	IC50 [2, 8]	EC50 ([3]; Homo sapiens, NCI-H358)	IC50 [4]	IC50 [5, 9]	IC50 [6, 10]	IC50 [7]	IC50 ([2]; IC50* KRAS G13D FRET data)	IC50 ([5]; IC50* NRAS G12C FRET data)	IC50 ([6]; IC50* KRAS G12C FRET data)
	C=CC(=O)N1CC[C@H](C(=O)N(C)[C@H](C(=O)N[C@H]2Cc3cc(O)cc(c3)-c3ccc4c(c3)c(c(-c3cccnc3[C@H](CC)OC)n4CC)CC(C)(C)COC(=O)[C@@H]3CCCN(N3)C2=O)C(C)C)C1 (atropisomer, axis not shown) [Example A181]	0.1 to 1 µM	0.1 to 1 µM and 1 to 10 µM	< 5 µM	0.1 to 1 µM and 1 to 10 µM	0.01 to 0.1 µM and 0.1 to 1 µM	0.01 to 0.1 µM and 0.1 to 1 µM	1 to 10 µM and 0.01 to 0.1 µM			
	C=CC(=O)N1CC[C@H](C(=O)N(C)[C@H](C(=O)N[C@H]2Cc3nc(ns3)-c3ccc4c(c3)c(c(-c3cccnc3[C@H](C)OC)n4CC)CC(C)(C)COC(=O)[C@@H]3CCCN(N3)C2=O)C(C)C)C1 (atropisomer, axis not shown) [Example A202]	1 to 10 µM	> 10 µM	< 5 µM	> 10 µM	1 to 10 µM	1 to 10 µM	1 to 10 µM			
< 5 µM	C=CC(=O)N1CC[C@H](C(=O)N(C)[C@H](C(=O)N[C@H]2Cc3cc(O)cc(c3)-c3ccc4c(c3)c(c(-c3cccnc3[C@@H](OC)C3CC3)n4CC)CC(C)(C)COC(=O)[C@@H]3CCCN(N3)C2=O)C(C)C)C1 (atropisomer, axis not shown) [Example A207]	0.1 to 1 µM	0.1 to 1 µM			0.01 to 0.1 µM	0.01 to 0.1 µM	0.1 to 1 µM			
	C=CC(=O)N1CC[C@H](C(=O)N(C)[C@H](C(=O)N[C@H]2Cc3cc(O)cc(c3)-c3ccc4c(c3)c(c(-c3cccnc3[C@@H]3CCCO3)n4CC)CC(C)(C)COC(=O)[C@@H]3CCCN(N3)C2=O)C(C)C)C1 (atropisomer, axis not shown) [Example A281]	0.1 to 1 µM	0.1 to 1 µM	< 5 µM	0.1 to 1 µM	0.01 to 0.1 µM and 0.1 to 1 µM	0.01 to 0.1 µM and 0.1 to 1 µM	0.1 to 1 µM			
	C=CC(=O)N1CC[C@H](C(=O)N(C)[C@H](C(=O)N[C@H]2Cc3nc(n(C)n3)-c3ccc4c(c3)c(c(-c3cccnc3[C@H](C)OC)n4CC)CC(C)(C)COC(=O)[C@@H]3CCCN(N3)C2=O)C(C)C)C1 (atropisomer, axis not shown) [Example A314]	1 to 10 µM	1 to 10 µM	< 5 µM	1 to 10 µM	0.1 to 1 µM	0.1 to 1 µM	1 to 10 µM			
	C=CC(=O)N1CC[C@H](C(=O)N(C)[C@H](C(=O)N[C@H]2Cc3csc(n3)-c3ccc4c(c3)c(c(-c3cccnc3[C@H](C)OC)n4CC)CC(C)(C)COC(=O)[C@@H]3CCCN(N3)C2=O)C(C)C)C1 (atropisomer, axis not shown) [Example A330]	1 to 10 µM	1 to 10 µM	< 5 µM	1 to 10 µM	0.1 to 1 µM	0.1 to 1 µM	1 to 10 µM			
	C=CC(=O)N1CC[C@]2(C1)CN(C(=O)N(C)[C@H](C(=O)N[C@H]1Cc3nc(cs3)-c3ccc4c(c3)c(c(-c3cccnc3[C@H](C)OC)n4CC)CC(C)(C)COC(=O)[C@@H]3CCCN(N3)C1=O)C(C)C)CCO2 (atropisomer, axis not shown) [Example A354]	0.1 to 1 µM	0.1 to 1 µM	< 5 µM	0.1 to 1 µM	0.01 to 0.1 µM	0.1 to 1 µM	0.1 to 1 µM			
	C=CC(=O)N1CC[C@@]2(C1)OCN([C@H](C(=O)N[C@H]1Cc3cccc(c3)-c3ccc4c(c3)c(c(-c3cccnc3[C@H](C)OC)n4CC)CC(C)(C)COC(=O)[C@@H]3CCCN(N3)C1=O)C(C)C)C2=O (atropisomer, axis not shown) [Example A358]	0.1 to 1 µM	1 to 10 µM	< 5 µM	1 to 10 µM	0.1 to 1 µM	0.1 to 1 µM	1 to 10 µM			
	CO[C@@H](C)c1ncccc1-c1c2c3cc(ccc3n1CC(F)(F)F)-c1csc(n1)C[C@H](NC(=O)CCOC1CN(C(=O)C#CC(C)(C)N3CCC3)C1)C(=O)N1CCC[C@H](N1)C(=O)OCC(C)(C)C2 (atropisomer, axis not shown) [Example A363]	1 to 10 µM	1 to 10 µM	< 5 µM	1 to 10 µM	0.01 to 0.1 µM	0.01 to 0.1 µM	1 to 10 µM			
	C=CC(=O)N(C)C[C@H]1CCN1C(=O)N(C)[C@H](C(=O)N[C@H]1Cc2nc(cs2)-c2ccc3c(c2)c(c(-c2cccnc2[C@H](C)OC)n3CC)CC(C)(C)COC(=O)[C@@H]2CCCN(N2)C1=O)C(C)C (atropisomer, axis not shown) [Example A369]	0.1 to 1 µM	1 to 10 µM	< 5 µM	0.1 to 1 µM	0.1 to 1 µM	0.1 to 1 µM	0.1 to 1 µM			
	C=CC(=O)N1CC[C@H](C(=O)N(C)[C@H](C(=O)N[C@H]2Cc3cccc(c3)-c3ccc4c(c3)c(c(-c3cccnc3[C@H](C)OC)n4CC)CC(C)(C)COC(=O)[C@@H]3CCCN(N3)C2=O)C(C)C)[C@H]1C (atropisomer, axis not shown) [Example A373]	1 to 10 µM	1 to 10 µM	< 5 µM	0.1 to 1 µM	0.1 to 1 µM	0.1 to 1 µM	1 to 10 µM			
	CO[C@@H](C)c1ncccc1-c1c2c3cc(ccc3n1CC(F)(F)F)-c1cc(cc(C(F)F)c1)C[C@H](NC(=O)[C@@H](COC1CN(C(=O)C#CC(C)(C)N(C)C)C1)C(C)C)C(=O)N1CCC[C@H](N1)C(=O)OCC(C)(C)C2 (atropisomer, axis not shown) [Example A374]	> 10 µM	> 10 µM	< 5 µM	> 10 µM	0.1 to 1 µM	0.1 to 1 µM	> 10 µM			
	CCn1c(-c2cccnc2[C@H](C)OC)c2c3cc(ccc31)-c1csc(n1)C[C@H](NC(=O)CCO[C@H]1CCN(C(=O)C#CC(C)(C)N3CCC3)C1)C(=O)N1CCC[C@H](N1)C(=O)OCC(C)(C)C2 (atropisomer, axis not shown) [Example A381]	1 to 10 µM	1 to 10 µM	< 5 µM	1 to 10 µM	0.01 to 0.1 µM	< 0.01 µM	1 to 10 µM			
	C=CC(=O)N(C)C[C@@H]1CCN1C(=O)N(C)[C@H](C(=O)N[C@H]1Cc2nc(cs2)-c2ccc3c(c2)c(c(-c2cccnc2[C@H](C)OC)n3CC)CC(C)(C)COC(=O)[C@@H]2CCCN(N2)C1=O)C(C)C (atropisomer, axis not shown) [Example A390]	1 to 10 µM	1 to 10 µM	< 5 µM	1 to 10 µM	0.1 to 1 µM	0.1 to 1 µM	1 to 10 µM			
	C=CC(=O)N1CC[C@H](C(=O)N(C)[C@H](C(=O)N[C@H]2Cc3cccc(c3)-c3ccc4c(c3)c(c(-c3cc(C5CN(C)C5)cnc3[C@H](C)OC)n4CC)CC(C)(C)COC(=O)[C@@H]3CCCN(N3)C2=O)C(C)C)C1 (atropisomer, axis not shown) [Example A392]	1 to 10 µM	> 10 µM	< 5 µM	1 to 10 µM	0.1 to 1 µM	0.1 to 1 µM	1 to 10 µM			
	C=CC(=O)N1CC[C@H](C(=O)N(C)[C@H](C(=O)N[C@H]2Cc3cccc(n3)-c3ccc4c(c3)c(c(-c3cccnc3[C@H](C)OC)n4CC)CC(C)(C)COC(=O)[C@@H]3CCCN(N3)C2=O)C(C)C)C1 (atropisomer, axis not shown) [Example A442]	> 10 µM	> 10 µM	< 5 µM	> 10 µM	0.1 to 1 µM	0.1 to 1 µM	1 to 10 µM			
	C=CC(=O)N1CC[C@H](C(=O)N(C)[C@H](C(=O)N[C@H]2Cc3cccc(c3)-c3ccc4c(c3)c(c(-c3cccnc3[C@H](C)OC)n4CC3COC3)CC(C)(C)COC(=O)[C@@H]3CCCN(N3)C2=O)C(C)C)C1 (atropisomer, axis not shown) [Example A481]	1 to 10 µM	> 10 µM	< 5 µM	1 to 10 µM	0.1 to 1 µM	0.1 to 1 µM	1 to 10 µM			
	C=CC(=O)N1CC[C@H](C(=O)N2CCCCC[C@H]2C(=O)N[C@H]2Cc3nc(cs3)-c3ccc4c(c3)c(c(-c3cccnc3[C@H](C)OC)n4CC)CC(C)(C)COC(=O)[C@@H]3CCCN(N3)C2=O)C1 (atropisomer, axis not shown) [Example A495]	1 to 10 µM	> 10 µM	< 5 µM	1 to 10 µM	0.1 to 1 µM	0.1 to 1 µM	1 to 10 µM			
	C=CC(=O)N1CC[C@H](C(=O)N(C)[C@H](C(=O)N[C@H]2Cc3cc(O)cc(c3)-c3ccc4c(c3)c(c(-c3ncn(C)c3[C@H](C)OC)n4CC)CC(C)(C)COC(=O)[C@@H]3CCCN(N3)C2=O)C(C)C)C1 [Example A301]			< 5 µM	1 to 10 µM			1 to 10 µM	> 10 µM	0.1 to 1 µM	0.1 to 1 µM
